Measured values reported in ChEMBL document CHEMBL2440071, “Antimycobacterial and herbicidal activity of ring-substituted 1-hydroxynaphthalene-2-carboxanilides” (Bioorg Med Chem, 2013).
pIC50: −log10 of the molar value. In brackets after ≈: the same amount, converted by molar mass. Activity calls are given as the source filed them. The calls are words filed in the database; no cut-off is given here.

Experiments:
[1] = Cytotoxicity against human THP1 cells after 24 hrs by lactate dehydrogenase assay; format: cell-based; conditions: THP-1 cells, read-out: LD50
[2] = Inhibition of PS2 in spinach chloroplasts assessed as photoreduction of DCPIP incubated for 2 mins in dark condition prior to testing by spectrophotometry; set-up: species or system Spinacia oleracea
Spinacia oleracea [3] = experiment: Inhibition of PS2 in spinach chloroplasts assessed as photoreduction of DCPIP measured remaining activity incubated for 2 mins in dark condition prior to testing by spectrophotometry relative to control; values are per cent of control; set-up: concentration or dose not given beside the values
Spinacia oleracea [4] = experiment: Inhibition of PS2 in spinach chloroplasts assessed as photoreduction of DCPIP measured remaining activity incubated for 2 mins in dark condition prior to testing by spectrophotometry in presence of diphenylcarbazide relative to control; values are per cent of control; set-up: concentration or dose not given beside the values
Mycobacterium kansasii = experiment: Antimycobacterial activity against Mycobacterium kansasii DSM 44162 after 7 days by two-fold serial dilution method; format: functional; conditions: DSM 44162, 168 h
Mycobacterium marinum [5] = experiment: Antimycobacterial activity against Mycobacterium marinum CAMP 5644 after 21 days by two-fold serial dilution method; format: functional; conditions: CAMP 5644, 504 h
[6] = test system: Mycolicibacterium smegmatis; experiment: Antimycobacterial activity against Mycobacterium smegmatis ATCC 700084 after 3 days by two-fold serial dilution method; format: functional; conditions: ATCC 700084, 72 h
[7] = Lipophilicity, log K of the compound by RP-HPLC analysis; format: physicochemical
[8] = test system: Mycolicibacterium smegmatis; experiment: Ratio of isoniazid MIC to compound MIC for Mycobacterium smegmatis ATCC 700084; format: functional
Mycobacterium marinum [9] = experiment: Ratio of isoniazid MIC to compound MIC for Mycobacterium marinum CAMP 5644; format: functional
Spinacia oleracea [10] = experiment: Inhibition of PS2 in spinach chloroplasts assessed as reduction in chlorophyll a fluorescence emission at 0.1 to 1.2 mmol/L by fluorescence spectrophotometry

| Compound | CC50 at 24 h [1] | pIC50 [2] | residual activity (Spinacia oleracea [3]) | residual activity (Spinacia oleracea [4]) | MIC (Mycobacterium kansasii) | MIC (Mycobacterium marinum [5]) | MIC [6] | log K [7] | Ratio [8] | Ratio (Mycobacterium marinum [9]) | inhibition (Spinacia oleracea [10]) |
| --- | --- | --- | --- | --- | --- | --- | --- | --- | --- | --- | --- |
| O=C(Nc1ccc(Br)cc1)c1ccc2ccccc2c1O | > 20 µM | 5.02 | 10% | 95% | 23.3 µM (≈ 7.97 µg/mL) | 46.7 µM (≈ 16 µg/mL) | 46.7 µM (≈ 16 µg/mL) | 1.1224 | 2.5 |  |  |
| COc1ccc(NC(=O)c2ccc3ccccc3c2O)cc1 |  | 4.10 | 10% | 95% | > 873 µM | > 873 µM | > 873 µM | 1.1882 |  |  |  |
| Cc1ccccc1NC(=O)c1ccc2ccccc2c1O | > 20 µM | 4.20 | 10% | 95% | 115 µM (≈ 31.9 µg/mL) | 28.8 µM (≈ 7.99 µg/mL) | 231 µM (≈ 64.1 µg/mL) | 1.1176 |  | 16 |  |
| O=C(Nc1ccccc1F)c1ccc2ccccc2c1O |  | 4.24 | 10% | 95% | > 910 µM | 56.8 µM (≈ 16 µg/mL) | 228 µM (≈ 64.1 µg/mL) | 0.8296 |  |  |  |
| O=C(Nc1cccc(Cl)c1)c1ccc2ccccc2c1O | > 20 µM | 5.10 | 10% | 95% | 26.8 µM (≈ 7.98 µg/mL) | 107 µM (≈ 31.9 µg/mL) | > 860 µM | 1.1615 |  |  |  |
| O=C(Nc1ccccc1)c1ccc2ccccc2c1O | > 20 µM | 4.50 | 10% | 95% | 15.2 µM (≈ 4 µg/mL) | 60.7 µM (≈ 16 µg/mL) | 243 µM (≈ 64 µg/mL) | 1.2302 |  |  |  |
| O=C(Nc1ccccc1C(F)(F)F)c1ccc2ccccc2c1O | > 20 µM | 3.90 | 10% | 95% | > 773 µM | 96.6 µM (≈ 32 µg/mL) | > 773 µM | 0.6899 |  |  | Active |
| Cc1cccc(NC(=O)c2ccc3ccccc3c2O)c1 | > 20 µM | 4.70 | 10% | 95% | 28.8 µM (≈ 7.99 µg/mL) | 28.8 µM (≈ 7.99 µg/mL) | 57.7 µM (≈ 16 µg/mL) | 1.4254 | 2.5 | 16 |  |
| O=C(Nc1ccccc1Br)c1ccc2ccccc2c1O |  | 4.21 | 10% | 95% | > 748 µM | > 748 µM | > 748 µM | 0.9234 |  |  |  |
| O=C(Nc1ccc(Cl)cc1)c1ccc2ccccc2c1O | > 20 µM | 4.97 | 10% | 95% | 26.8 µM (≈ 7.98 µg/mL) | 215 µM (≈ 64 µg/mL) | 215 µM (≈ 64 µg/mL) | 1.1314 |  |  |  |
| O=C(Nc1ccccc1[N+](=O)[O-])c1ccc2ccccc2c1O |  |  | 10% | 95% | > 830 µM | > 830 µM | > 830 µM | 0.5014 |  |  |  |
| CC[C@@]1(O)C(=O)OCc2c1cc1n(c2=O)Cc2cc3ccccc3nc2-1 [CAMPTOTHECIN] | 0.16 µM |  |  |  |  |  |  |  |  |  |  |
| O=C(Nc1ccc(C(F)(F)F)cc1)c1ccc2ccccc2c1O | 0.6 µM | 4.44 | 10% | 95% | 23.3 µM (≈ 7.72 µg/mL) | 187 µM (≈ 62 µg/mL) | > 748 µM | 1.1158 |  |  |  |
| NNC(=O)c1ccncc1 [ISONIAZID] |  |  |  |  |  | 467 µM (≈ 64 µg/mL) | 117 µM (≈ 16 µg/mL) |  |  |  |  |
| O=C(Nc1ccc([N+](=O)[O-])cc1)c1ccc2ccccc2c1O |  | 4.62 | 10% | 95% | 51.9 µM (≈ 16 µg/mL) | 104 µM (≈ 32.1 µg/mL) | > 830 µM | 0.5298 |  |  |  |
| O=C(Nc1ccc(F)cc1)c1ccc2ccccc2c1O | > 10 µM | 4.69 | 10% | 95% | 14.2 µM (≈ 3.99 µg/mL) | 114 µM (≈ 32.1 µg/mL) | > 910 µM | 1.0533 |  |  |  |
| Cc1ccc(NC(=O)c2ccc3ccccc3c2O)cc1 |  | 4.54 | 10% | 95% | 57.7 µM (≈ 16 µg/mL) | 115 µM (≈ 31.9 µg/mL) | 923 µM (≈ 256 µg/mL) | 1.4008 |  |  |  |
| O=C(Nc1cccc(Br)c1)c1ccc2ccccc2c1O | > 20 µM | 5.09 | 10% | 95% | > 748 µM | > 748 µM | > 748 µM | 1.1784 |  |  |  |
| O=C(Nc1ccccc1Cl)c1ccc2ccccc2c1O |  | 4.53 | 10% | 95% | 860 µM (≈ 256 µg/mL) | 107 µM (≈ 31.9 µg/mL) | 860 µM (≈ 256 µg/mL) | 0.8764 |  |  |  |
| CN(C)C(=O)Nc1ccc(Cl)c(Cl)c1 [DCMU] |  | 5.72 |  |  |  |  |  |  |  |  |  |
| COc1cccc(NC(=O)c2ccc3ccccc3c2O)c1 |  | 4.63 | 10% | 95% | > 873 µM | 54.5 µM (≈ 16 µg/mL) | > 873 µM | 1.2849 |  |  |  |
| O=C(Nc1cccc(F)c1)c1ccc2ccccc2c1O | > 10 µM | 4.81 | 10% | 95% | 28.4 µM (≈ 7.99 µg/mL) | 28.4 µM (≈ 7.99 µg/mL) | 910 µM (≈ 256 µg/mL) | 1.0763 |  | 16 |  |
| O=C(Nc1cccc([N+](=O)[O-])c1)c1ccc2ccccc2c1O |  | 4.70 | 10% | 95% | > 830 µM | > 830 µM | > 830 µM | 0.6609 |  |  |  |
| O=C(Nc1cccc(C(F)(F)F)c1)c1ccc2ccccc2c1O | 1 µM | 5.28 | 10% | 95% | > 748 µM | 46.7 µM (≈ 15.5 µg/mL) | > 748 µM | 1.127 |  |  |  |
| COc1ccccc1NC(=O)c1ccc2ccccc2c1O |  | 3.70 | 10% | 95% | > 873 µM | > 873 µM | > 873 µM | 1.4716 |  |  |  |
